From paper PMC10694602, “Binding of perilipin 3 to membranes containing diacylglycerol is mediated by conserved residues within its PAT domain” (The Journal of Biological Chemistry, 2023)
Residue numbers refer to the chain shown, from its start. Structures can show the parent of a compound that is named as a salt. Where two headings read alike, the source gives them in different places. One block for each molecule: values may come before it.

Key:
[1] = biological target: T1, PLIN3 (Homo sapiens, UniProt O60664); test: Microscale thermophoresis (MST) binding of lipids, liposomes or ALDs to full-length WT PLIN3; conditions: for fold increase of PLIN3 binding versus unspiked DOPC/DOPE liposomes: DOPC/DOPE (80/20 mol%) liposomes, DAG 5 mol%, DOPA 10 mol%
T1 construct: Plasmids containing human full-length PLIN3 or fragments thereof were obtained by PCR amplification; made in house; host or cells: Escherichia coli BL21 (DE3) or NiCo21 (DE3)
T1 sequence (O60664 1-434): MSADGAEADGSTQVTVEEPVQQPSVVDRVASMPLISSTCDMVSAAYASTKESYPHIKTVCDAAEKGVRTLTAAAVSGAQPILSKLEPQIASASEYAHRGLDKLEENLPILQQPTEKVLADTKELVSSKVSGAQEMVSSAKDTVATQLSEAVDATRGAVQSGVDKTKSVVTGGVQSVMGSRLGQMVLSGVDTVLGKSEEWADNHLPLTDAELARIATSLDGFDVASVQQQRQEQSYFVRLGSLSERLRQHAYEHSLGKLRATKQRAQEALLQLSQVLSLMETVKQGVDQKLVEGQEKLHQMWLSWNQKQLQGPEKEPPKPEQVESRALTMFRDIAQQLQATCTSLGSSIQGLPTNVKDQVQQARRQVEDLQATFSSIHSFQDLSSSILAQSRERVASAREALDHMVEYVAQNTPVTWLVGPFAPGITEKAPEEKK
Description: To corroborate these findings, we analyzed binding of PLIN3 to liposomes using microscale thermophoresis (MST), an immobilization-free technology for measuring biomolecular interactions based on the diffusion of a fluorescently labeled protein along a microscopic temperature gradient. In this assay, the free protein diffuses faster than the one which has bound to a ligand. Ligands can range from small ions to low molecular weight compounds, liposomes, or even viruses ([24], [25], [26], [27], [28]). Variations in fluorescence intensity are then plotted against the ligand concentrations to determine a binding affinity. […] To determine the optimal DAG concentrations for PLIN3 binding, we varied the DAG concentrations in the ER-liposomes between 0 to 20 mol%.
(§1) Binding of purified PLIN3 protein and PLIN3 domains to liposomes, ALDs, or short chain lipids was determined by MST using a Monolith NT.115 system (Nanotemper Technologies). Proteins were labeled with a RED-tris-NTA His tag protein-labeling reagent following the manufacturer’s instructions (Nanotemper Technologies). Labeled proteins were added to a serial dilution of unlabeled lipids, liposomes, or ALDs, and the mixtures were loaded into MST standard capillaries to assess binding affinities. The dissociation constant was obtained by plotting fluorescence intensities of the protein–lipid complex against the concentrations of the unlabeled lipids, liposomes, or ALDs. Experiments were performed in triplicates and data were fitted using the KD Model of the MO.Affinity Analysis software (https://nanotempertech.com/, Nanotemper Technologies).

[2] = biological target: T2, 4-helix bundle of PLIN3 (Homo sapiens, UniProt O60664); test: MST binding to the 4-helix bundle of PLIN3
T2 sequence (O60664 245-434 limits assumed): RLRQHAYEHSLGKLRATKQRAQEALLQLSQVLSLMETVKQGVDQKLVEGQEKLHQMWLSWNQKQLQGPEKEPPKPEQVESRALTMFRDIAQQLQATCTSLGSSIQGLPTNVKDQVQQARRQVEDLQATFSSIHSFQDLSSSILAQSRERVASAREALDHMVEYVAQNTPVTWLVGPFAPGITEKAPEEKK
Description: (§2) To gain further insight into the binding of PLIN3 to DAG-containing membranes, we examined the contribution of each individual domain of PLIN3 towards lipid binding, that is, the N-terminal PAT domain, the central 11-mer repeat region, and the C-terminally located 4-helix bundle (Fig. 2A). Therefore, we expressed and purified proteins harboring individual domains of PLIN3 and first examined their binding of short-chain lipids.
as §1

[3] = biological target: T3, PAT domain of PLIN3 (Homo sapiens, UniProt O60664); test: MST binding to the PAT domain of PLIN3; conditions: short chain lipids as free ligands; for Kd: n.d. = not detected, Fig. 2B
T3 sequence (O60664 1-107 limits assumed): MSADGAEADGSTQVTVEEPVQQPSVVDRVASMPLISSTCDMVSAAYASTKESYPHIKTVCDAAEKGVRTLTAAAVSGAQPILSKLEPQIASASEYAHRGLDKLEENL
Description: as §2, §1

[4] = biological target: T4, PLIN3 - E86A I89G S93A (Homo sapiens, UniProt O60664, E86A/I89G/S93A); test: MST binding to the PLIN3 triple mutant; conditions: short chain lipid as free ligand; n.d. = not detected; Fig. 4C
T4 construct: Plasmids containing human full-length PLIN3 or fragments thereof were obtained by PCR amplification; made in house; host or cells: Escherichia coli BL21 (DE3) or NiCo21 (DE3)
T4 sequence (O60664 1-434 E86A/I89G/S93A): T1 sequence (O60664 1-434) with E86A, I89G, S93A
Description: (§3) To validate this predicted mode of DAG binding by the PAT domain, we generated mutant versions of PLIN3 and assessed their impact on DAG binding by MST. First, we tested whether the simultaneous substitution of the five residues, Q22, S24, E86A, I89G, and S93A, would impact either binding of short chain DAG or that of liposomes containing low concentrations of DAG. […] To assess the impact of these residues in more detail, we first tested mutations in the two serine residues S24A and S93A. […] To confirm the importance of the glutamic acid residue at position 86 for binding of DAG, we also generated an E86A point mutant version.
as §1, with “Experiments were performed in triplicates and data were fitted using the KD Model of the MO.Affinity Analysis software (https://nanotempertech.com/, Nanotemper Technologies).” left out

[5] = biological target: T5, PLIN3 - E86A (Homo sapiens, UniProt O60664, E86A); test: MST binding to the PLIN3 point mutant; conditions: short chain lipid as free ligand
T5 construct: Plasmids containing human full-length PLIN3 or fragments thereof were obtained by PCR amplification; made in house; host or cells: Escherichia coli BL21 (DE3) or NiCo21 (DE3)
T5 sequence (O60664 1-434 E86A): T1 sequence (O60664 1-434) with E86A
Description: as §3
as §1, with “Experiments were performed in triplicates and data were fitted using the KD Model of the MO.Affinity Analysis software (https://nanotempertech.com/, Nanotemper Technologies).” left out

[6] = biological target: T6, PLIN3 - S24A S93A (Homo sapiens, UniProt O60664, S24A/S93A); test: MST binding to the PLIN3 serine double mutant; conditions: short chain lipid as free ligand
T6 construct: Plasmids containing human full-length PLIN3 or fragments thereof were obtained by PCR amplification; made in house; host or cells: Escherichia coli BL21 (DE3) or NiCo21 (DE3)
T6 sequence (O60664 1-434 S24A/S93A): T1 sequence (O60664 1-434) with S24A, S93A
Description: as §3
as §1, with “Experiments were performed in triplicates and data were fitted using the KD Model of the MO.Affinity Analysis software (https://nanotempertech.com/, Nanotemper Technologies).” left out

[7] = biological target: T7, PLIN3 - Q22A S24A E86A I89G S93A (Homo sapiens, UniProt O60664, E86A/I89G/Q22A/S24A/S93A); test: MST binding to the PLIN3 quintuple mutant; conditions: short chain lipid as free ligand; n.d.; Fig. S1
T7 construct: Plasmids containing human full-length PLIN3 or fragments thereof were obtained by PCR amplification; made in house; host or cells: Escherichia coli BL21 (DE3) or NiCo21 (DE3)
T7 sequence (O60664 1-434 Q22A/S24A/E86A/I89G/S93A): T1 sequence (O60664 1-434) with Q22A, S24A, E86A, I89G, S93A
Description: as §3
as §1, with “Experiments were performed in triplicates and data were fitted using the KD Model of the MO.Affinity Analysis software (https://nanotempertech.com/, Nanotemper Technologies).” left out

[8] = biological target: T8, 11-mer repeat region of PLIN3 (Homo sapiens, UniProt O60664); test: MST binding to the 11-mer repeat region of PLIN3; conditions: short chain lipids as free ligands; n.d. = not detected; Fig. 2B
T8 sequence (O60664 115-179 limits assumed): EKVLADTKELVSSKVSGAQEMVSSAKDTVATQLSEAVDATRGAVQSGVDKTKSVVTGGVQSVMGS
Description: as §2, §1

[9] = biological target: T9, His-tagged human PLIN3 (Homo sapiens, UniProt O60664); test: Liposome flotation assay on a sucrose gradient, PLIN3 detected by Western blotting; assay type: binding; conditions: ER-liposomes containing 16:0 DAG at 5 mol%; top layer of sucrose gradient
T9 construct: Plasmids containing human full-length PLIN3 or fragments thereof were obtained by PCR amplification; made in house; host or cells: Escherichia coli BL21 (DE3) or NiCo21 (DE3)
T9 sequence (O60664 1-434): T1 sequence (O60664 1-434)
Experimental: To examine the interaction between soluble PLIN3 and membranes containing DAG, we first performed liposome-binding assays. Therefore, purified His-tagged human PLIN3 was incubated with liposomes prepared from a phospholipid mixture that mimics the composition of the ER membrane (DOPC/DOPE/DOPS/DOPA/SoyPI, 53/23/8/5/11 mol%; hereafter termed ER-liposomes) lacking or containing low concentrations of DAG (16:0 DAG; 5 mol%). Liposomes were then floated on a sucrose gradient, and PLIN3 binding was monitored by Western blotting.
Purified PLIN3 was incubated with liposomes for 1 h at RT and then gently mixed with an equal volume of 60% (w/v) sucrose solution in liposome buffer to obtain a final sucrose concentration of 30%. This mixture was overlaid with two volumes of 20% sucrose solution, two volumes of 10% sucrose solution, and one volume of liposome buffer. The samples were centrifuged at 177,000g for 1 h at 20 °C. Four fractions were collected from the top of the gradient and the distribution of PLIN3 was analyzed by Western blotting. Signal intensities were quantified using ImageJ (https://imagej.net/ij/) software.

[10] = short chain lipid as free ligand, Fig. 1I, Fig. 4C, read-out: KD
[11] = ER-liposomes supplemented with the named DAG at 5 mol%, KD against liposome concentration, Fig. 1C, read-out: KD

SMILES: CCCCCCC(=O)OC[C@H](COP(=O)([O-])OCC[N+](C)(C)C)OC(=O)CCCCCC [7:0 PC, 1,2-diheptanoyl-sn-glycero-3-phosphocholine]
Kd [1]: 214 ± 71 µM
Kd [2]: 88.5 ± 28.8 µM

SMILES: CCCCCCCC(=O)OC[C@H](CO)OC(=O)CCCCCCC [8:0 DAG, 1,2-dioctanoyl-sn-glycerol]
Kd [1, 10]: 0.1 µM
fold stronger binding than 8:0 PA [3]: 36 fold
Kd [3]: 0.39 µM
Kd ([2]; short chain lipids as free ligands, n.d. = not detected, Fig. 2B, read-out: KD 4-helix): 20.7 µM
KD [4]: failed to bind
fold less efficient binding than WT PLIN3 [5]: 873 fold
Kd ([5]; Fig. 4C): 87.3 µM
fold decreased affinity versus WT PLIN3 [6]: 20.9 fold
Kd ([6]; Fig. S1): 2.09 µM
KD [7]: failed to bind

SMILES: CCCCCCCC(=O)OC[C@H](COP(=O)(O)O)OC(=O)CCCCCCC [8:0 PA, 1,2-dioctanoyl-sn-glycero-3-phosphate sodium salt]
Kd [3]: 14.1 µM

SMILES: CCCCCCCC(=O)OC[C@H](COP(=O)(O)OC[C@H](N)C(=O)O)OC(=O)CCCCCCC [8:0 PS, 1,2-dioctanoyl-sn-glycero-3-phospho-L-serine sodium salt]
Kd [3]: 106 ± 30.5 µM
Kd [8]: 471 ± 53.8 µM

Further lines, results first:

Kd [1, 10]: 0.27 µM
Kd [3]: 17.3 µM
SMILES: CCCCCCCC(=O)OCC(COC(=O)CCCCCCC)OC(=O)CCCCCCC [8:0 TAG, 1,2,3-trioctanoylglycerol]

fraction of PLIN3 recovered from liposomes [9]: 13.9%
fold increase of PLIN3 binding versus unspiked DOPC/DOPE liposomes [1]: 36 fold
fold lower dissociation constant than ER-liposomes lacking DAG ([1]; ER-liposomes containing 16:0 DAG at 5 mol%): 29 fold
Kd [1, 11]: 20.6 µM
Kd ([1]; PC/PE liposomes (DOPC/DOPE; 80/20 mol%) spiked with 16:0 DAG at 5 mol%, Fig. 1H, read-out: KD): 15 µM
SMILES: CCCCCCCCCCCCCCCC(=O)OC[C@H](CO)OC(=O)CCCCCCCCCCCCCCC [16:0 DAG, 1,2-dipalmitoyl-sn-glycerol]

Kd [1, 11]: 60.1 µM
SMILES: CCCCCCCC/C=C\CCCCCCCC(=O)OC[C@H](CO)OC(=O)CCCCCCC/C=C\CCCCCCCC [18:1 DAG, 1,2-dioleoyl-sn-glycerol]

fold increase of PLIN3 binding versus unspiked DOPC/DOPE liposomes [1]: 9 fold
Kd ([1]; PC/PE liposomes (DOPC/DOPE; 80/20 mol%) spiked with the named lipid at 10 mol%, n.d. = not detected, Fig. 1H, read-out: KD): 58.1 µM
SMILES: CCCCCCCC/C=C\CCCCCCCC(=O)OC[C@H](COP(=O)(O)O)OC(=O)CCCCCCC/C=C\CCCCCCCC [18:1 PA, 1,2-dioleoyl-sn-glycero-3-phosphate]

Kd ([1]; ER-liposomes supplemented with 20 mol% cholesterol, Fig. 1E, read-out: KD): 64.9 µM
SMILES: CC(C)CCC[C@@H](C)[C@H]1CC[C@H]2[C@@H]3CC=C4C[C@@H](O)CC[C@]4(C)[C@H]3CC[C@]12C [cholesterol]
